We go through 1 compound from EPA's ToxValDB 9.5 (doi:10.2903/j.efsa.2009.339r).

Bounds are passed on as bounds.

One data set relates to Typhlodromus pyri. The data set is described as follows: LR50; higher = less toxic. As to conditions: acute; duration: 14 days; mortality.
The next data set has as its system Rattus norvegicus. The following applies: acute; oral; mortality.
The test system of another data set is Canidae. As to conditions: chronic; duration: 1 years; oral; Dog Other; clinical chemistry.
The next data set has as its system Apis mellifera. The following applies: acute; duration: 48 hours; oral; unspecified; mortality.
Another data set concerns Daphnia magna. The following applies: chronic/long-term; duration: 21 days; reproduction.
Another data set deals with Tagia sp. As to conditions: acute; mortality.
For data set [1] the following is noted: reproductive; oral; feed.
The test system of another data set is Bibionidae. The following applies: chronic/long-term; duration: 28 days.

As usually defined, the NOAEL is the highest dose or exposure tested at which no adverse effect was seen. In the case of `CCC(C)(C)C(=O)OC1=C(c2ccc(Cl)cc2Cl)C(=O)OC12CCCCC2` [Spirodiclofen], in the data set with Typhlodromus pyri, the LR50 is 2.4 g/ha. Further, the LD50 with Rattus norvegicus is > 2500 mg/kg; in the data set on Apis mellifera it was > 196 µg/piece; in the data set with Colinus virginianus (acute, oral, mortality) it was > 2000 mg/kg. In the data set with Canidae, this compound showed an NOAEL of 1.45 mg/kg-day. The NOEC in the data set on Anas platyrhynchos (reproductive) is 111 mg/kg-day; in the data set with Daphnia magna it was 0.0111 mg/L; with Oncorhynchus mykiss (chronic/long-term, duration: 97 days, time to hatch) it was 0.00195 mg/L; in data set [1], 6 mg/kg-day; in the data set with Bibionidae, 0.032 mg/L; in the data set with Colinus virginianus (reproduction developmental), 51 mg/kg-day. Moreover, the LC50 is > 2270 mg/kg-day in the data set with Anas platyrhynchos (short-term, oral, feed, mortality); > 0.0351 µg/mL in the data set with Oncorhynchus mykiss (acute, duration: 96 hours, mortality); > 1000 mg/kg in the data set with Tagia sp.; > 1060 mg/kg-day with Colinus virginianus (acute, oral, diet, mortality).
